Results taken from patent US20120003661A1, “METHODS AND DEVICES FOR THE SELECTIVE DETECTION OF MICROORGANISMS” (C3 JIAN, INC., priority 2010, published 2012).
Entries after “also recorded” stand apart in the source; their conditions may differ.

tested on: bacteria, fungi, and/or yeasts; assay type: binding; conditions: microorganism(s) listed as target(s) of the targeting peptide; wrapped target lists given cell by cell

Substance	Target(s)
PF-028 (ALDCSEQSVILWYETILDKIVGVIK)	S. epidermidis, M. luteus, MRSA
PF-029 (NSTNE)	S. epidermidis, M. luteus, C. albicans,; also recorded: C. jejuni
PF-030 (MTCHQAPTTTHQSNMA)	yeast and hyphal forms; also recorded: S. epidermidis, M. luteus, P. mirabilis,; also recorded: E. coli, P. aeruginosa,; also recorded: C. albicans, MRSA, S. pneumoniae,; also recorded: E. faecalis, C. jeikeium,; also recorded: C. jejuni
PF-031 (MPHHSTTSSRIVVPAHQSNMASTPNLSITP)	M. luteus, C. albicans
PF-033 (MFIFKTTSKSHFHNNVKSLECIKIPINKNR)	S. epidermidis, M. luteus, E. coli,; also recorded: P. aeruginosa, C. albicans,; also recorded: MRSA, S. pneumoniae
PF-034 (EPKKKHFPKMESASSEP)	M. luteus
PF-035 (SFYESY)	S. epidermidis, M. luteus, E. coli,; also recorded: C. albicans, MRSA, C. jeikeium,; also recorded: C. jejuni
PF-036 (ILNRLSRIVSNEVTSLIYSLK)	S. epidermidis, M. luteus, P. mirabilis,; also recorded: E. coli, C. albicans,; also recorded: MRSA, S. pneumoniae, C. jejuni
PF-037 (MTKKRRYDTTEFGLAHSMTAKITLHQALYK)	S. epidermidis, M. luteus, P. aeruginosa,; also recorded: C. albicans, MRSA,; also recorded: S. pneumoniae, E. faecalis, C. jeikeium
PF-038 (MAYKDEGKETKFAVKGYKD)	M. luteus
PF-039 (MLEEKNKSL)	P. mirabilis, C. jeikeium
PF-040 (MIHLTKQNTMEALHFIKQFYDMFFILNFNV)	C. albicans hyphae; also recorded: S. epidermidis, M. luteus, P. mirabilis,; also recorded: E. coli, P. aeruginosa,; also recorded: C. albicans, MRSA, S. pneumoniae,; also recorded: E. faecalis, C. jeikeium,; also recorded: C. jejuni
PF-041 (ELLVILPGFI)	MRSA
PF-042 (LLLSYFRYTGALLQSLF)	S. epidermidis, M. luteus, P. mirabilis,; also recorded: E. coli, P. aeruginosa,; also recorded: C. albicans, MRSA, S. pneumoniae,; also recorded: E. faecalis, C. jeikeium
PF-043 (MIKNETAYQMNELLVIRSAYAK)	M. luteus, C. jejuni
PF-044 (KLKKYIHKPD)	S. epidermidis, M. luteus, MRSA,; also recorded: C. jeikeium
PF-045 (LDINDYRSTY)	S. epidermidis, E. coli, E. faecalis,; also recorded: C. jejuni
PF-046 (LDFYLTKHLTLML)	E. coli, E. faecalis, C. jeikeium
PF-047 (NQEPSLQQDKEQKDNKG)	S. mutans
PF-048 (LYFAFKKYQERVNQAPNIEY)	S. epidermidis, M. luteus, E. coli,; also recorded: MRSA, C. jeikeium, C. jejuni
PF-049 (AYYLKRREEKGK)	S. epidermidis, MRSA, C. jeikeium,; also recorded: C. jejuni
PF-050 (SYYLKRREEKGK)	S. epidermidis, M. luteus, E. coli,; also recorded: C. jeikeium
PF-051 (RFFNFEIKKSTKVDYVFAHVDLSDV)	C. albicans hyphae; also recorded: S. epidermidis, M. luteus, P. aeruginosa,; also recorded: C. albicans, MRSA,; also recorded: S. pneumoniae, E. faecalis
PF-052 (QELINEAVNLLVKSK)	S. epidermidis, M. luteus, E. coli,; also recorded: MRSA, E. faecalis, C. jeikeium,; also recorded: C. jejuni
PF-053 (KLFGQWGPELGSIYILPALIGSIILIAIVTLILRAMRK)	S. epidermidis, M. luteus, E. coli,; also recorded: P. aeruginosa, C. albicans,; also recorded: MRSA, S. pneumoniae, E. faecalis
PF-054 (VSISRFIGGGHVFNGNNKRNL)	S. epidermidis, E. coli
PF-055 (GHVFNGNNKRNL)	S. mutans
PF-056 (AEQLFGKQKQRGVDLFLNRLTIILSILFFVLMICISYLGM)	S. epidermidis, M. luteus, P. mirabilis,; also recorded: E. coli, P. aeruginosa,; also recorded: C. albicans, MRSA, S. pneumoniae,; also recorded: E. faecalis, C. jeikeium
PF-057 (TMIVISIPRFEEYMKARHKKWM)	S. epidermidis, M. luteus, P. mirabilis,; also recorded: E. coli, P. aeruginosa,; also recorded: C. albicans, MRSA, S. pneumoniae,; also recorded: E. faecalis, C. jeikeium,; also recorded: C. jejuni
